The record followed here is ChEMBL document CHEMBL1201862, “PubChem BioAssay data set” (2004).

Test systems include 786-0; ACHN; BT-549; CCRF-CEM; HCT-116; HCT-15; HOP-62; HT-29; Hs-578T; IGROV-1; K562; LOX IMVI; M14; MDA-MB-231; MDA-N; NCI-H23; SF-539; SK-MEL-28; SNB-19; U-251.
Common to all, as to experiment: growth of human tumour cells (NCI), 48 h

Structures are written as SMILES.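 48-hour exposure; five concentrations; linearly interpolated endpoints. Here, GI50 denotes the concentration required for 50% inhibition of growth.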 Activity calls are given as the source filed them. No stated cut-off is given here; in the data, active = GI50 up to about 1.1 µM and inactive = higher.

Consider `CC1=NN(C(=O)c2ccncc2)C(=O)C1`, for which the GI50 in the test on 786-0 is > 100 µM (inactive); in the test on ACHN it was > 100 µM (inactive); in the test with BT-549, > 100 µM (inactive); in the test on CCRF-CEM, > 100 µM (inactive); in the test with HCT-116, > 100 µM (inactive); with HCT-15 it was over 100 µM. In addition, the GI50 with HOP-62, with HT-29, in the test on Hs-578T, in the test with IGROV-1, in the test with K562 and in the test on LOX IMVI was > 100 µM (inactive) in each case. Besides, the GI50 was > 100 µM (inactive) in the test with M14; 32.2 µM (inactive) in the test on MDA-MB-231; > 100 µM (inactive) in the test with MDA-N; > 100 µM (inactive) with NCI-H23; > 100 µM (inactive) in the test with SF-539; > 100 µM (inactive) with SK-MEL-28. The GI50 with SNB-19 and in the test with U-251 was > 100 µM (inactive) throughout.
With `c1ccc(-c2nn(-c3ccccc3)[n+](-c3ccccc3)n2)cc1` [TETRAZOLIUM RED], the GI50 with 786-0 is 14.3 µM (inactive); in the test on ACHN, > 78 µM (inactive); with BT-549, > 50.5 µM (inactive); in the test on CCRF-CEM, 0.718 µM (active); in the test on HCT-116, 6.5 µM (inactive); with HCT-15, over 100 µM. The GI50 in the test with HOP-62 was 19.5 µM (inactive); in the test on HT-29, 18.6 µM (inactive); in the test with Hs-578T it was 31.6 µM (inactive); with IGROV-1 it was 3.1 µM (inactive); in the test with K562 it was 18.6 µM (inactive); in the test on LOX IMVI it was 11.9 µM (inactive). Further, the GI50 in the test with M14 is 10.7 µM (inactive); in the test with MDA-MB-231 it was 20 µM (inactive); in the test with MDA-N, 12.9 µM (inactive); in the test on NCI-H23, 7.29 µM (inactive); with SF-539, 33 µM (inactive); in the test on SK-MEL-28, 19.4 µM (inactive). The GI50 with SNB-19 is > 35.6 µM (inactive); with U-251 it was 8.97 µM (inactive).
As for `O=C1C(c2cnc3ccccc3n2)=C(O)c2ccccc21`, the GI50 with 786-0 was 84.3 µM (inactive); in the test with ACHN it was > 86.5 µM (inactive); in the test on BT-549, > 100 µM (inactive); in the test on CCRF-CEM it was > 100 µM (inactive); in the test on HCT-116, > 95.7 µM (inactive); in the test on HCT-15, 1.16 µM. Also, the GI50 is 43.4 µM (inactive) in the test with HOP-62; > 74.1 µM (inactive) in the test with HT-29; > 57.7 µM (inactive) with Hs-578T; > 83 µM (inactive) in the test on IGROV-1; > 86.9 µM (inactive) in the test with K562; 47.3 µM (inactive) with LOX IMVI. Further, the GI50 in the test on M14 was > 100 µM (inactive); in the test with MDA-MB-231, > 100 µM (inactive); with MDA-N, > 61.4 µM (inactive); in the test on NCI-H23 it was > 100 µM (inactive); in the test with SF-539 it was > 100 µM (inactive); with SK-MEL-28 it was > 82.4 µM (inactive). In addition, the values for the GI50 with SNB-19 and with U-251 were > 85.3 µM (inactive) and 58.6 µM (inactive), respectively.
Consider `Cc1ccnc2nc(-c3cccc4ccccc34)cc(O)c12`, for which the GI50 in the test with 786-0 was 0.011 µM (active); with ACHN, 0.0248 µM (active); in the test with BT-549, 14.1 µM (inactive); with CCRF-CEM it was 0.00527 µM (active); in the test with HCT-116, 0.00542 µM (active); in the test on HCT-15, 0.00434 µM. For the same molecule, the GI50 with HOP-62 is 0.537 µM (active); in the test with HT-29 it was 0.00296 µM (active); in the test on Hs-578T it was 0.0141 µM (active); in the test with IGROV-1 it was 0.043 µM (active); in the test with K562, 0.000483 µM (active); in the test on LOX IMVI it was 0.00713 µM (active). The GI50 in the test with M14 was 0.00938 µM (active); in the test on MDA-MB-231, 0.149 µM (active); in the test on MDA-N, 0.000104 µM (active); in the test with NCI-H23 it was 0.0783 µM (active); in the test with SF-539 it was 0.0112 µM (active); in the test on SK-MEL-28, 0.00395 µM (active). In addition, the values for the GI50 in the test with SNB-19 and in the test on U-251 were 0.0147 µM (active) and 0.00445 µM (active), respectively.
Regarding `CC(=O)/C(=C\I)c1ccccc1`, the GI50 in the test with 786-0 was 2.12 µM (inactive); in the test with BT-549, 1.83 µM (inactive); in the test with CCRF-CEM, 1.97 µM (inactive); in the test on HCT-116, 2.26 µM (inactive); with HCT-15, 1.83 µM; in the test on HOP-62, 23.1 µM (inactive). The GI50 in the test with HT-29 is 0.995 µM (active); in the test with Hs-578T, 3.44 µM (inactive); with IGROV-1, 2.1 µM (inactive); with K562, 0.481 µM (active); in the test on LOX IMVI, 1.67 µM (inactive); in the test with M14, 2.31 µM (inactive). Also, the GI50 with MDA-MB-231 was 1.85 µM (inactive); in the test on MDA-N it was 1.62 µM (inactive); with NCI-H23 it was 2.23 µM (inactive); with SF-539, 18 µM (inactive); with SK-MEL-28, 3.18 µM (inactive); with SNB-19, 12.1 µM (inactive). In addition, the GI50 with U-251 was 2.26 µM (inactive).
Take `O=C(O)Cc1c(-c2ccc([N+](=O)[O-])cc2)c(=O)oc2cc(O)ccc12`: the GI50 with 786-0 is 36.5 µM (inactive); with ACHN, 24.2 µM (inactive); in the test on BT-549, 23.8 µM (inactive); in the test with CCRF-CEM it was 22.5 µM (inactive); in the test on HCT-116 it was 26.1 µM (inactive); with HCT-15, 24.2 µM. In addition, the GI50 is 11.6 µM (inactive) with HT-29; 25.9 µM (inactive) in the test with Hs-578T; 61.4 µM (inactive) in the test on IGROV-1; 30.9 µM (inactive) with K562; 36.1 µM (inactive) in the test on LOX IMVI; 32.1 µM (inactive) in the test with M14. For the same molecule, the GI50 in the test on MDA-MB-231 was 29.4 µM (inactive); in the test with MDA-N it was 30.4 µM (inactive); with NCI-H23 it was 36.3 µM (inactive); in the test on SF-539 it was 32.4 µM (inactive); in the test with SK-MEL-28, 38 µM (inactive); with SNB-19, 25.1 µM (inactive). In addition, the GI50 in the test on U-251 was 15.7 µM (inactive).
For the molecule `CC(NC(=O)c1ccc(Cl)c(Cl)c1)c1ccc(-c2ccccc2)cc1` (configuration not stated), the GI50 in the test on 786-0 is 22.5 µM (inactive); with ACHN, 50.1 µM (inactive); with BT-549 it was 66.5 µM (inactive); in the test with HCT-116 it was 59.3 µM (inactive); with HCT-15, over 100 µM; with HOP-62, 22.2 µM (inactive). The GI50 in the test on HT-29 was 71.6 µM (inactive); in the test with Hs-578T, 27 µM (inactive); in the test on IGROV-1, 32.8 µM (inactive); in the test on K562, > 100 µM (inactive); with LOX IMVI, 38.3 µM (inactive); in the test on M14 it was 64.7 µM (inactive). The GI50 with MDA-MB-231 was 42.7 µM (inactive); with MDA-N, > 100 µM (inactive); in the test on NCI-H23, 48.3 µM (inactive); in the test with SF-539, 19.3 µM (inactive); with SK-MEL-28, 58.6 µM (inactive); with SNB-19 it was 21.1 µM (inactive). For the same molecule, the GI50 with U-251 was 31.7 µM (inactive).
`CCN(CC)CCN1C(=O)c2c(c(-c3ccccc3)c3ccccc3c2-c2ccccc2)C1=O`: the GI50 was 37.6 µM (inactive) with 786-0; > 100 µM (inactive) with ACHN; > 100 µM (inactive) with BT-549; > 100 µM (inactive) with CCRF-CEM; > 100 µM (inactive) with HCT-116; over 100 µM in the test with HCT-15. Also, the GI50 in the test with HOP-62 was 71.1 µM (inactive); in the test on HT-29, > 100 µM (inactive); in the test on Hs-578T, > 100 µM (inactive); in the test with IGROV-1, > 100 µM (inactive); with K562, > 100 µM (inactive); with LOX IMVI, > 100 µM (inactive). Moreover, the GI50 with M14 is > 100 µM (inactive); in the test on MDA-MB-231, > 100 µM (inactive); in the test with MDA-N, > 100 µM (inactive); in the test on SF-539, 54.1 µM (inactive); with SNB-19, 46.3 µM (inactive); in the test on U-251 it was 81.7 µM (inactive).
Turning to `[N-]=[N+]=NC1=C(N=[N+]=[N-])c2cccc3cccc(c23)C1=O`, the GI50 in the test with 786-0 is > 100 µM (inactive); with ACHN it was > 100 µM (inactive); in the test with BT-549, > 100 µM (inactive); in the test with CCRF-CEM, 67.9 µM (inactive); in the test with HCT-116, > 100 µM (inactive); with HCT-15, over 100 µM. The GI50 in the test with HOP-62 was 49.7 µM (inactive); with HT-29, 76.7 µM (inactive); with Hs-578T, > 100 µM (inactive); in the test on IGROV-1, 68.2 µM (inactive); with K562 it was > 100 µM (inactive); in the test with LOX IMVI it was > 100 µM (inactive). Moreover, the GI50 is > 100 µM (inactive) in the test with M14; 60.1 µM (inactive) in the test on MDA-MB-231; < 0.01 µM (active) in the test on MDA-N; > 100 µM (inactive) in the test on NCI-H23; > 100 µM (inactive) in the test on SF-539; > 100 µM (inactive) in the test with SNB-19. In addition, in the test on U-251, the GI50 was 97.7 µM (inactive).
Turning to `COc1cc(NC(C)c2ccc3c(c2)OCCO3)cc(OC)c1OC` (configuration not stated), the GI50 with 786-0 was 34.4 µM (inactive); in the test with ACHN, 70 µM (inactive); in the test with BT-549, 33 µM (inactive); with HCT-116, 30.3 µM (inactive); with HCT-15 it was 24.4 µM; in the test with HOP-62 it was 58.7 µM (inactive). Further, the GI50 in the test on HT-29 was 33.7 µM (inactive); in the test with Hs-578T, 20.9 µM (inactive); with IGROV-1, 59.3 µM (inactive); in the test on K562 it was 8.97 µM (inactive); with LOX IMVI, 46.2 µM (inactive); with M14, 31.4 µM (inactive). Further, the GI50 is 32.5 µM (inactive) in the test on MDA-MB-231; 5.4 µM (inactive) with MDA-N; 18.9 µM (inactive) in the test with NCI-H23; 22.1 µM (inactive) in the test with SF-539; 56.4 µM (inactive) in the test on SK-MEL-28; 95.5 µM (inactive) in the test with SNB-19. For the same molecule, the GI50 in the test with U-251 was 29.5 µM (inactive).
With `CN(Cc1cnc2nc(N)nc(N)c2n1)c1ccc(C(=O)NC2CCCCC2)cc1`, the GI50 in the test on 786-0 was 11.6 µM (inactive); in the test with ACHN it was 23.3 µM (inactive); in the test with BT-549, 23.2 µM (inactive); with CCRF-CEM, 36.7 µM (inactive); in the test with HCT-116, 6.65 µM (inactive); in the test on HCT-15, 20.8 µM. For the same molecule, the GI50 in the test with HOP-62 is 34.5 µM (inactive); in the test on HT-29, 16.2 µM (inactive); in the test on Hs-578T, 23.6 µM (inactive); with IGROV-1 it was 13.3 µM (inactive); in the test on K562, 7.33 µM (inactive); in the test on LOX IMVI, 5.51 µM (inactive). The GI50 is 10.6 µM (inactive) in the test on M14; 33.6 µM (inactive) in the test on MDA-MB-231; 7.69 µM (inactive) in the test on MDA-N; 36.1 µM (inactive) in the test with NCI-H23; 13.6 µM (inactive) in the test with SF-539; 14.9 µM (inactive) with SNB-19. For the same molecule, in the test with U-251, the GI50 is 11.8 µM (inactive).
